According to publication PMC6348381, “Discovery of an MLLT1/3 YEATS Domain Chemical Probe” (Angewandte Chemie (International Ed. in English), 2018):

Columns and labels:
Assay type in all cases: binding
[1] = biological target: T1, ASH1L (Homo sapiens, UniProt Q9NR48); experiment: Thermal shift assay, ASH1L
T1 construct: purchased in-house (SGC bromodomain thermal shift / AlphaScreen panel)
Description: (§1) II.VII Thermal Shift Assay[6]
(§2) Thermal melting experiments were carried out using an Mx3005p Real Time PCR machine (Stratagene). Proteins were buffered in 10 mM HEPES pH 7.5, 500 mM NaCl and assayed in a 96-well plate at a final concentration of 2 μM in 20 μL volume. Compounds were added at a final concentration of 50 μM. SYPRO Orange (Molecular Probes) was added as a fluorescence probe at a dilution of 1:1000. Excitation and emission filters for the SYPRO-Orange dye were set to 465 nm and 590 nm, respectively. The temperature was raised with a step of 3 °C per minute from 25 °C to 96 °C and fluorescence readings were taken at each interval. The unfolding curves were fitted using the Boltzmann equation to determine the middle point of the transition.

[2] = biological target: T2, BAZ1B (Homo sapiens, UniProt Q9UIG0); experiment: Thermal shift assay, BAZ1B
T2 construct: purchased in-house (SGC bromodomain thermal shift / AlphaScreen panel)
T2 sequence (Q9UIG0 1-1483): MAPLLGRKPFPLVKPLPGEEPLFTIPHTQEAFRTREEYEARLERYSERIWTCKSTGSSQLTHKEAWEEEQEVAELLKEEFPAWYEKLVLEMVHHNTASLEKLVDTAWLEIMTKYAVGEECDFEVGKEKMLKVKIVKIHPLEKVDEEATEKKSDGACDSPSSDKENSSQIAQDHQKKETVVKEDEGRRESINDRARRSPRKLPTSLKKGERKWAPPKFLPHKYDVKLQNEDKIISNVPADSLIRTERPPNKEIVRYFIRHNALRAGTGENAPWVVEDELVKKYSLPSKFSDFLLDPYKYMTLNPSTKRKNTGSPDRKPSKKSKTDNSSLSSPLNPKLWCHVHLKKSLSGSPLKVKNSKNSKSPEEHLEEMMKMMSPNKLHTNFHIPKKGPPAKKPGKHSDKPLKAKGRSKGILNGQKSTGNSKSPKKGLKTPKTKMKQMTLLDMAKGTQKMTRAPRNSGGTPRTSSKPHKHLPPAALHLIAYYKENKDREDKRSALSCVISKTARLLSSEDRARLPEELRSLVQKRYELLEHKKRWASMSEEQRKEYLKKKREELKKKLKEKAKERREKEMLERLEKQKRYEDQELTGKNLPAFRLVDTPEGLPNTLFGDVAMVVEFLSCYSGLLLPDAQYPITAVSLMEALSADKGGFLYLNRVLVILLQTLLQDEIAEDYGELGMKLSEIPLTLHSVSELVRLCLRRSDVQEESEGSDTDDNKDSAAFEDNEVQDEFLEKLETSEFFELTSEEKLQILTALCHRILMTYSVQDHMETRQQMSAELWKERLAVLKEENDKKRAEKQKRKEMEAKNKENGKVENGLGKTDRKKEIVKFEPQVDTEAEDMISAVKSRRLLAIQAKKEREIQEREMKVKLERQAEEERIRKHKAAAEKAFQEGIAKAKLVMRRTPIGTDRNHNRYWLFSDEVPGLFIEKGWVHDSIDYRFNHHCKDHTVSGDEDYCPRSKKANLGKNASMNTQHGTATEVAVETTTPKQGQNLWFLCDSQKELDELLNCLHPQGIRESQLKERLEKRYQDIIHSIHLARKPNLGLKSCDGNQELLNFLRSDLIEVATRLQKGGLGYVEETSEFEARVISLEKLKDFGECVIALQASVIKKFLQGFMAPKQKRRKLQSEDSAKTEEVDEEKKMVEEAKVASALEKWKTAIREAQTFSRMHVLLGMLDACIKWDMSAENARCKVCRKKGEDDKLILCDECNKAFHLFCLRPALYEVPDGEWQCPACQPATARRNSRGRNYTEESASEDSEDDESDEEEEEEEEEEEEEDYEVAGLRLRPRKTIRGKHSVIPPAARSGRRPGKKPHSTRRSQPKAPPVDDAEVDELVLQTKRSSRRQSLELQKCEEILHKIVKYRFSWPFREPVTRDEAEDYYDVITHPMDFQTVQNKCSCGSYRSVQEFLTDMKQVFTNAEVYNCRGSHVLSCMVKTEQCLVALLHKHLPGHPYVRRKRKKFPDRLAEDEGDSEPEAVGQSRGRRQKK
Description: as §1, §2

[3] = biological target: T3, BRD2(1) (Homo sapiens, UniProt P25440); experiment: Thermal shift assay, BRD2(1)
T3 construct: BRD2(1); purchased in-house (SGC bromodomain thermal shift / AlphaScreen panel)
T3 sequence (P25440 71-194 limits assumed): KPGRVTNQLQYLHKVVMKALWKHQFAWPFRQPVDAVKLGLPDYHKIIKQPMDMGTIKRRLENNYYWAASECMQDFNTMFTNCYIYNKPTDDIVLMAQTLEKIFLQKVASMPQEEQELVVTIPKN

[4] = biological target: T4, MLL (Homo sapiens, UniProt Q03164); experiment: Thermal shift assay, MLL
T4 construct: purchased in-house (SGC bromodomain thermal shift / AlphaScreen panel)

[5] = biological target: T5, PHIP(2) (Homo sapiens, UniProt Q8WWQ0); experiment: Thermal shift assay, PHIP(2)
T5 construct: PHIP(2); purchased in-house (SGC bromodomain thermal shift / AlphaScreen panel)
Description: as §1, §2

[6] = biological target: T6, TAF1(1) (Homo sapiens, UniProt P21675); experiment: Thermal shift assay, TAF1(1)
T6 construct: TAF1(1); purchased in-house (SGC bromodomain thermal shift / AlphaScreen panel)
T6 sequence (P21675 1397-1505 limits assumed): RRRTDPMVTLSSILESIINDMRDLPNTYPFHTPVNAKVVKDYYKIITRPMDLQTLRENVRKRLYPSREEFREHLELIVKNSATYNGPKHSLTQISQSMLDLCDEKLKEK
Description: as §1, §2

[7] = biological target: T7, TAF1(2) (Homo sapiens, UniProt P21675); experiment: Thermal shift assay, TAF1(2)
T7 construct: Bromosporine with recombinant human bromodomain proteins; made in house
T7 sequence (P21675 1519-1628 limits assumed): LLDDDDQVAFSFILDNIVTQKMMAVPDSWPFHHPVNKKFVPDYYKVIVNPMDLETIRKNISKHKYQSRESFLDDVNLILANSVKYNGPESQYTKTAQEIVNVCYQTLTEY
Description: as §1, §2

[8] = biological target: CECR2 (Homo sapiens, UniProt Q9BXF3); experiment: Thermal shift assay, CECR2; design: purchased in-house (SGC bromodomain thermal shift / AlphaScreen panel)
Sequence of CECR2 (Q9BXF3 whole entry): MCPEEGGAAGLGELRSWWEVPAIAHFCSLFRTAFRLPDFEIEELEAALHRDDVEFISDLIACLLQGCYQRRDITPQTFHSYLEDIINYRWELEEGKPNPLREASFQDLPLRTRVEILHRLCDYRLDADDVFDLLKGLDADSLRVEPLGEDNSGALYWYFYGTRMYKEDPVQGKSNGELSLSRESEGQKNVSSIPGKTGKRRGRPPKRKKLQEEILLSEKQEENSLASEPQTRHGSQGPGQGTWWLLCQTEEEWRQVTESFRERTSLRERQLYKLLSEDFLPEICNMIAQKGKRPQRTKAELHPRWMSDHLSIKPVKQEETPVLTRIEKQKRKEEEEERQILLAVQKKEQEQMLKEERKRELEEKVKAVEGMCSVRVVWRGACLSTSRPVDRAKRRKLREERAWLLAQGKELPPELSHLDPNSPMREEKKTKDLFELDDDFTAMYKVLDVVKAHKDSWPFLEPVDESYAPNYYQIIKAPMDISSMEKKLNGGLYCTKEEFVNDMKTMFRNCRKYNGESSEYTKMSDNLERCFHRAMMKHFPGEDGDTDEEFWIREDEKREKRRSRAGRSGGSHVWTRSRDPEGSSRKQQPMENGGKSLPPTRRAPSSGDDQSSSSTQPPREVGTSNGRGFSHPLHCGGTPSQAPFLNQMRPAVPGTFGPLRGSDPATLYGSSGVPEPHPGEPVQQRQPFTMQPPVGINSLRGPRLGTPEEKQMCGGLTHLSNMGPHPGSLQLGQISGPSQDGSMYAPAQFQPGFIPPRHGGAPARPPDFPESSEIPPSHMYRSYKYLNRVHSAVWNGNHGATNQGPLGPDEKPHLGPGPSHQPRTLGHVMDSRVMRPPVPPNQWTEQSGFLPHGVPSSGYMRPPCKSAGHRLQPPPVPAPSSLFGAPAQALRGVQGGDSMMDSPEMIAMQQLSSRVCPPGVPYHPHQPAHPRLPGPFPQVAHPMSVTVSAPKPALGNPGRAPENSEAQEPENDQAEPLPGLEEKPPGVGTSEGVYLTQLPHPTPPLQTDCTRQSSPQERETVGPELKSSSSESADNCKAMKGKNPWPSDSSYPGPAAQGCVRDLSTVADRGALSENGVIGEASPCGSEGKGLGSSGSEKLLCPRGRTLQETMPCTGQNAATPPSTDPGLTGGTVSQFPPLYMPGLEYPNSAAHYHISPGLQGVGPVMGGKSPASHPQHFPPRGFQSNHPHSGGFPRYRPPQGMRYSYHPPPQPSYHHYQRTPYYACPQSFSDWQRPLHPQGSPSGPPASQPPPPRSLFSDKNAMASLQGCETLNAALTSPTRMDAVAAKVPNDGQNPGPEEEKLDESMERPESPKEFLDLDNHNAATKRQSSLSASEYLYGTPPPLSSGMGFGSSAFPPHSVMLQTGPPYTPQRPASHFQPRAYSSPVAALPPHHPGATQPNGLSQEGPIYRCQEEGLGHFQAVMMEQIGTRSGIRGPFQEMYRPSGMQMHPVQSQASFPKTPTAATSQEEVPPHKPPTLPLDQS

[9] = biological target: BRD4(1) (Homo sapiens, UniProt O60885); experiment: Thermal shift assay, BRD4(1); design: BRD4(1); purchased in-house (SGC bromodomain thermal shift / AlphaScreen panel)
Description: as §1, §2

Thermal stabilisation, ASH1L ([1]; 10 µM compound concentration)	Thermal stabilisation, BAZ1B ([2]; 10 µM compound concentration)	Thermal stabilisation, BRD2(1) ([3]; 10 µM compound concentration)	Thermal stabilisation, MLL ([4]; 10 µM compound concentration)	Thermal stabilisation, PHIP(2) ([5]; 10 µM compound concentration)	Thermal stabilisation, TAF1(1) ([6]; 10 µM compound concentration)	Thermal stabilisation, TAF1(2) ([7]; 10 µM compound concentration)	Thermal stabilisation, CECR2 ([8]; 10 µM compound concentration)	Thermal stabilisation, BRD4(1) ([9]; 10 µM compound concentration)	SMILES	Thermal stabilisation, ASH1L ([1]; 50 μM compound)	Thermal stabilisation, BAZ1B ([2]; 50 μM compound)	Thermal stabilisation, BRD2(1) ([3]; 50 μM compound)	Thermal stabilisation, MLL ([4]; 50 μM compound)	Thermal stabilisation, PHIP(2) ([5]; 50 μM compound)	Thermal stabilisation, TAF1(1) ([6]; 50 μM compound)	Thermal stabilisation, TAF1(2) ([7]; 50 μM compound)	Thermal stabilisation, CECR2 ([8]; 50 μM compound)	Thermal stabilisation, BRD4(1) ([9]; 50 μM compound)
–	–	–	–	–	–	–	–	–	C[C@H]1CCCN1Cc1nc2cc(NC(=O)c3ccc4c(cnn4C)c3)ccc2[nH]1 [Compound 92]	-0.305	-0.19	-0.28	-1.31	-1.48	-0.15	-0.21	1.205	-0.035
0.51	-0.23	4.46	0.75	-2.61	0.805	5.03	11.42	6.61	CCOC(=O)Nc1cc(-c2ccc(C)c(NS(C)(=O)=O)c2)nn2c(C)nnc12 [Bromosporine, reference compound]	–	–	–	–	–	–	–	–	–
–	–	–	–	–	–	–	–	–	COC(=O)c1ccc(C(=O)Nc2ccc3[nH]c(CN4CCCCC4)nc3c2)cc1 [Compound 1]	0.32	1.03	1.345	-0.18	-0.595	0.005	-0.22	1.28	1.095
